{"source": "patent US11739161B2", "about": "“Methods for treating and diagnosing prostate cancer” (Tufts Medical Center, Inc., priority 2017, dated 2023)", "molecules": {"B1": {"name": "RNase A: member of the pancreatic ribonuclease superfamily (protein, UniProt P61823 27-150, looked up)", "Ribonuclease pancreatic": "KETAAAKFERQHMDSSTSAASSSNYCNQMMKSRNLTKDRCKPVNTFVHESLADVQAVCSQKNVACKNGQTNCYQSYSTMSITDCRETGSSKYPNCAYKTTQANKHIIVACEGNPYVPVHFDASV"}}, "type_in_all_cases": "cell-based, human", "key": {"DU145 cells": {"test_system": "DU145 cells", "assay": "RNASE4-induced cell proliferation (MTT assay)", "experimental": "(§1) FIGS. 10A-E. RNASE4 induces prostate cancer cell proliferation and phosphorylation of AKT and S6. (A and B) Exogenous RNASE4 (1 μg/ml) stimulates cell proliferation (A) and cell cycle progression (B) of DU145 cells cultured in the presence of 2% FBS. Cell numbers were determined by MTT assay. Cell cycle status was determined by flow cytometry after 24 hour incubation with RNASE4. (C) Time course of AKT and S6 phosphorylation of serum-starved DU145 cells by RNASE4 (1 μg/ml). Left panels, immunoblots; right panels, quantification of p-AKT and p-S6 normalized to total AKT and S6 by Image J analysis. […] Cells were pre-incubated with the inhibitors at the indicated concentrations for 1 hour prior to be stimulated by 1 μg/ml of RNASE4 for 5 minutes. Top panels, immunoblots; bottom panels, Image J quantification of p-AKT and p-S6 normalized to total AKT and S6. (E) Effect of AKT inhibitor MK-2206, PI3K inhibitors Wortmannin and LY294002, and mTOR inhibitor Rapamycin on RNASE4-induced cell proliferation. DU145 cells were serum-starved overnight, incubated with the inhibitors for 1 hour, and then treated with RNASE4 (1 μg/ml) for three days. Cell numbers were determined by MTT assay. Data shown are from a representative experiments in triplicates of 3 independent repeats. Error bars indicate SEM. **P≤0.01, by unpaired two-tailed Student's t test.\nFIGS. 12A-F. RNASE4 induces AXL phosphorylation. (A) Human phospho-receptor tyrosine kinase (RTK) antibody array analysis. Serum-starved DU145 cells were treated with or without 1 μg/ml of RNASE4 for 5 minutes. […] Cell lysates were analyzed by antibodies against total AXL and phospho-AXL, with β-actin as the loading control. Left panels, immunoblots; right panel, Image J quantification of p-AXL normalized to total AXL. […] Left panels, immunoblots; right panel, quantification. […] Cell numbers were determined by MTT assay. […] Cell lysates were analyzed for AKT and P6 phosphorylation by immunoblotting. Top panels, immunoblots; bottom panels, quantification of phospho-AKT and phospho-S6 by Image J analyses normalized to total AKT and P6, respectively. […]"}, "[1]": {"test_system": "AKT and S6 phosphorylation in DU145 cells", "assay": "RNASE4-induced phosphorylation of AKT and S6 (immunoblot)", "conditions": "then 1 μg/ml RNASE4 5 minutes", "experimental": "as §1\n(§2) FIGS. 12A-F. RNASE4 induces AXL phosphorylation. (A) Human phospho-receptor tyrosine kinase (RTK) antibody array analysis. Serum-starved DU145 cells were treated with or without 1 μg/ml of RNASE4 for 5 minutes. A total of 1.5 mg cell lysate protein was blotted on each array membrane. […] (B) Immunoblot analysis of RNASE4-stimulated AXL phosphorylation. DU145 cells were serum-starved overnight and treated with 1 μg/ml of RNASE4 for the indicated time. Cell lysates were analyzed by antibodies against total AXL and phospho-AXL, with β-actin as the loading control. Left panels, immunoblots; right panel, Image J quantification of p-AXL normalized to total AXL. (C) Immunoblot analysis of phospho-AXL in response to stimulation by ANG, RNase A, and RNASE4. DU145 cells were serum-starved overnight and treated with 1 μg/ml of ANG, RNase A, or RNASE4 for 15 minutes. Left panels, immunoblots; right panel, quantification. (D) Effect of AXL inhibitor R428 on RNASE4-induced cell proliferation. Serum-starved DU145 cells were incubated with 1 or 3 μM R428 for 3 hours and then stimulated by 1 μg/ml of RNASE4 for 3 days. Cell numbers were determined by MTT assay. Data shown are means±SEM of a representative experiment (in triplicates) of 3 independent repeats. **P≤0.01 and ***P≤0.001, by unpaired two-tailed Student's t test. (E) Effect of AXL inhibitor R428 on RNASE4-induced AKT and P6 phosphorylation. Serum-starved DU145 cells were incubated with 1 or 3 μM R428 for 3 hours and then stimulated by 1 μg/ml of RNASE4 for 5 minutes. Cell lysates were analyzed for AKT and P6 phosphorylation by immunoblotting. Top panels, immunoblots; bottom panels, quantification of phospho-AKT and phospho-S6 by Image J analyses normalized to total AKT and P6, respectively. (F) Schematic presentation of proposed involvement of AXL in RNASE4-stimulated cellular events."}, "PC-3 cells": {"test_system": "PC-3 cells", "assay": "RNASE4-induced cell proliferation (MTT assay)", "experimental": "FIGS. 11A-F. RNASE4 induces PC-3 cell proliferation and phosphorylation of AKT and S6. (A) Exogenous RNASE4 (1 μg/ml) stimulates PC-3 cells proliferation in the presence of 2% FBS. Cell numbers were determined by MTT assay. (B) Time course of AKT and S6 phosphorylation of serum-starved PC-3 cells by RNASE4 (1 μg/ml). Left panels, immunoblots; right panels, quantification of p-AKT and p-S6 normalized to total AKT and S6 by Image J. (C) Effect of AKT inhibitor MK-2206, PI3K inhibitors LY294002 and Wortmannin, and mTOR inhibitor Rapamycin on RNASE4-induced PC-3 cell proliferation. Cells were pre-incubated with the inhibitors at the indicated concentrations for 1 hour prior to be stimulated by RNASE4 (1 μg/ml) for 3 days. Cell numbers were determined by MTT assay. (D) Human phospho-RTK antibody array analysis of starved PC-3 cells treated with or without 1 μg/ml RNASE4 for 5 minutes. (E) Time course of AXL phosphorylation stimulated by RNASE4 in PC-3 cells. Serum-starved PC-3 cells were treated with 1 μg/ml RNASE4 for different time. Cell lysates were analyzed for total AXL and phopho-AXL by immunoblotting. Left panels, immunoblots; right panel, quantification phospho-AXL normalized to total AXL by Image J analysis. (F) Effect of AXL inhibitor R428 on RNASE4-induced PC-3 cell proliferation. Serum-starved PC-3 cells were incubated with 1 or 3 μM R428 for 3 hours and then stimulated by 1 μg/ml of RNASE4 for 3 days. Cell numbers were determined by MTT assay. Data shown are means±SEM of a representative experiments in triplicates of 3 independent repeats. **P≤0.01 and ***P≤0.001, by unpaired two-tailed Student's t test."}, "[2]": {"test_system": "AXL phosphorylation in DU145 cells", "assay": "AXL phosphorylation (phospho-RTK array, immunoblot)", "conditions": "serum-starved DU145, 1 μg/ml protein", "experimental": "as §2\nHuman Phospho-RTK Arrays were purchased from R&D Systems. […] Protein concentrations were quantified by Bradford Assay and 1.5 mg cell lysate was used per array. Pixel densities on were analyzed by ImageJ. […]"}, "[3]": {"conditions": "serum-starved DU145, 1 or 3 μM R428 3 hours"}}}
{"molecule": "NC1(c2ccc(-c3nc4ccn5c(=O)[nH]nc5c4cc3-c3ccccc3)cc2)CCC1", "note": "[MK-2206]", "values": [{"measurement": "RNASE4-induced cell proliferation", "setting": "DU145 cells; serum-starved DU145, inhibitor 1 hour, then RNASE4 1 μg/ml three days", "result": "abolished"}, {"measurement": "RNASE4-induced AKT phosphorylation", "setting": "[1]; DU145, inhibitor 1 hour", "result": "inhibited"}, {"measurement": "RNASE4-induced S6 phosphorylation", "setting": "[1]; DU145, inhibitor 1 hour", "result": "inhibited"}, {"measurement": "RNASE4-induced cell proliferation", "setting": "PC-3 cells; PC-3, inhibitor 1 hour, then RNASE4 1 μg/ml 3 days", "result": "abolished"}]}
{"molecule": "Nc1nc(Nc2ccc3c(c2)CCC(N2CCCC2)CC3)nn1-c1cc2c(nn1)-c1ccccc1CCC2", "note": "(stereo not shown) [R428]", "values": [{"measurement": "RNASE4-induced cell proliferation", "setting": "DU145 cells; serum-starved DU145, 1 or 3 μM R428 3 hours, then 1 μg/ml RNASE4 3 days", "result": "inhibted"}, {"measurement": "RNASE4-induced AKT phosphorylation", "setting": "[1]; [3]", "result": "inhibted"}, {"measurement": "RNASE4-induced S6 phosphorylation", "setting": "[1]; [3]", "result": "inhibted"}, {"measurement": "RNASE4-induced cell proliferation", "setting": "PC-3 cells; serum-starved PC-3, 1 or 3 μM R428 3 hours, then 1 μg/ml RNASE4 3 days", "result": "inhibted"}]}
{"molecule": "ANG: Angiogenin, another member of the pancreatic ribonuclease superfamily [reference compound]", "values": [{"measurement": "phosphorylation of AXL", "setting": "[2]", "result": "do not induce"}]}
{"molecule": "B1", "values": [{"measurement": "phosphorylation of AXL", "setting": "[2]", "result": "do not induce"}]}
